# “Also recorded” adds a separate entry of the source. Ends that are not written are not given here.
# Experiments:
# Type in all cases: cell-based
# [1] = target: T1, GIPR (Homo sapiens, UniProt P48546); test: GIPR agonism, AKAR3 FRET in HEK293 cells stably transfected with GIPR; details: tested up to 1 μM
# T1 construct: expressed in transfected cells; host or cells: HEK293
# T1 sequence (P48546 22-466): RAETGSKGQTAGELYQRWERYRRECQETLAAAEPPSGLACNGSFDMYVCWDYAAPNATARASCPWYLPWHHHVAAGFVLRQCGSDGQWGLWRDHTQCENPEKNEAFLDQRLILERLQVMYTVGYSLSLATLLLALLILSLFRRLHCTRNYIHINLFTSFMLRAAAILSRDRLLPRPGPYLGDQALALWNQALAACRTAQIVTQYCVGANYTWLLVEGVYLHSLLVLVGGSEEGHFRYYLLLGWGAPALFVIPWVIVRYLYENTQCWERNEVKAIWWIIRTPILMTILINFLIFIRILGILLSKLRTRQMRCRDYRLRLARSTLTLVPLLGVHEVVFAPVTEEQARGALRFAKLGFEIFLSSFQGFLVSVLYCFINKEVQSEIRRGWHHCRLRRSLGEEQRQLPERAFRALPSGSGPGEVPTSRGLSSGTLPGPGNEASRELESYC
# Experimental: (§1) The RLB series peptides were tested for function at receptors corresponding to the glucagon super family of receptors and NPY receptors. These receptors were transfected into either HEK293 cells or CHO cells. HEK 293 cells stably transfected with either GLP-1R or GIPR followed by an infection of adenovirus incorporating AKAR3 to indirectly follow cAMP production. CHO cells were transfected with NPY2R and a promiscuous g protein using FURA2 to follow calcium release.
# Receptors in the glucagon receptor superfamily were tested based on the similarities of native peptide agonists.
# [2] = target: T2, GLP-1R (Homo sapiens, UniProt P43220); test: GLP-1R agonism, AKAR3 FRET assay in HEK-GLP-1R cells; details: for GLP-1R agonism screen: 300 nM, HEK-GLP-1R cells (FIG. 10)
# T2 construct: expressed in transfected cells; host or cells: HEK293
# Experimental: as §1
# [3] = target: T3, NPY2R (Homo sapiens, UniProt P49146); test: NPY2R agonism, FURA2 calcium release in transfected CHO cells
# T3 construct: expressed in transfected cells; host or cells: CHO
# T3 sequence (P49146 1-381): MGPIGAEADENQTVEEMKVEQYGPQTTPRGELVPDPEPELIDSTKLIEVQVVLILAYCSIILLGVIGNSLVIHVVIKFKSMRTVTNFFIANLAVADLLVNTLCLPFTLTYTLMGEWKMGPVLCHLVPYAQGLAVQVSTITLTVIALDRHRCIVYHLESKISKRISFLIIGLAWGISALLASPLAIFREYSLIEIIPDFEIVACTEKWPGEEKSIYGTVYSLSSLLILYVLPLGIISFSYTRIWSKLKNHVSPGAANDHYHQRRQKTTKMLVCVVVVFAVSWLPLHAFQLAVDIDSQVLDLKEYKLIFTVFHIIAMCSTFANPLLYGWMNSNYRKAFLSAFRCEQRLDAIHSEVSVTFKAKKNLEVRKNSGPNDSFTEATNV
# Experimental: as §1
# T2 sequence (P43220 24-463, species assumed): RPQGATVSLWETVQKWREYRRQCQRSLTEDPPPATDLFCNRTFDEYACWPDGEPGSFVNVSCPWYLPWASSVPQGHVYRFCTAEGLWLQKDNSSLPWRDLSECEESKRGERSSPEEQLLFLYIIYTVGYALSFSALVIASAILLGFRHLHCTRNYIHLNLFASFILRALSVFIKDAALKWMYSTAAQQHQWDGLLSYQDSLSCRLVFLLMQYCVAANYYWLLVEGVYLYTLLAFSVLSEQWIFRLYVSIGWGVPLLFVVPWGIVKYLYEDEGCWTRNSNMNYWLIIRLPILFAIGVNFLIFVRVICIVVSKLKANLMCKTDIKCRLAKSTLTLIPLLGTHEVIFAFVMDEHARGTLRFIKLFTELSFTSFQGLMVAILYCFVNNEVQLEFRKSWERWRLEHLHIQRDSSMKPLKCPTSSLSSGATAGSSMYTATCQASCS
Compound,GIPR agonism [1],GLP-1R agonism screen [2],EC50 ([2]; dose response) [nM],GLP-1R agonism screening ([2]; peptides at 100 nM (FIG. 3)),"Potency at the GLP-1R, comparative statement ([2]; relative to the other dual agonists)",NPY2R agonism screen ([3]; 300 nM (FIG. 12)),EC50 ([3]; dose response) [nM]
CC[C@H](C)[C@H](NC(=O)[C@H](Cc1ccccc1)NC(=O)[C@H](CC(C)C)NC(=O)[C@H](CCCNC(=N)N)NC(=O)[C@@H](NC(=O)[C@H](C)NC(=O)[C@H](CCC(=O)O)NC(=O)[C@H](CCC(=O)O)NC(=O)[C@H](CCC(=O)O)NC(=O)[C@H](CCSC)NC(=O)[C@H](CCC(N)=O)NC(=O)[C@H](CCCCN)NC(=O)[C@H](CO)NC(=O)[C@H](CC(C)C)NC(=O)[C@H](CC(=O)O)NC(=O)[C@H](CO)NC(=O)[C@@H](NC(=O)[C@H](Cc1ccccc1)NC(=O)[C@@H](NC(=O)CNC(=O)[C@H](CCC(=O)O)NC(=O)CNC(=O)[C@@H](N)Cc1c[nH]cn1)[C@@H](C)O)[C@@H](C)O)C(C)C)C(=O)N[C@@H](CCC(=O)O)C(=O)N[C@@H](Cc1c[nH]c2ccccc12)C(=O)N[C@@H](CC(C)C)C(=O)N[C@@H](CCCNC(=N)N)C(=O)N[C@@H](Cc1c[nH]cn1)C(=O)N[C@@H](Cc1ccc(O)cc1)C(=O)N[C@@H](CC(C)C)C(=O)N[C@@H](CC(N)=O)C(=O)N[C@@H](CC(C)C)C(=O)N[C@H](C(=O)N[C@H](C(=O)N[C@@H](CCCNC(=N)N)C(=O)N[C@@H](CCC(N)=O)C(=O)N[C@@H](CCCNC(=N)N)C(=O)N[C@@H](Cc1ccc(O)cc1)C(N)=O)[C@@H](C)O)C(C)C [Peptide 12],no agonsim; also recorded: no function,have agonism,0.253 ± 0.05,effective agonists,significant less potent,full function,59
IKPEAPREDASPEEENQAYKEFIAYLNLVTRQRY-NH2 [Peptide 13],,no function,,,,,

# — patent US10111932B2, “Coagonists of glucagon-like peptide 1 receptor and neuropeptide Y2 receptor” (Syracuse University, priority 2015, dated 2018)
